Laboratory results from patent publication US20060128675A1, “Method for monitoring the effectiveness of teracycline in the treatment of asthma” (priority 2002, published 2006).

How the values were obtained:
[1] = tested on: rheumatoid arthritis (RA) patients; settings: mild and moderate RA patients; cited from earlier work
[2] = tested on: IgE production by PBMC from non asthmatic subjects; assay: IgE production in vitro by anti-CD40 mAb + rhIL-4 stimulated PBMC from non asthmatic subjects; assay type: cell-based, human; settings: anti-CD40/rhIL-4
Procedure: (§1) PBMC were separated from blood on a Ficoll-Paque (Pharmacia, Piscataway, N.J.) gradient (density 1.077). The PBMC were carefully removed using a transfer pipette (VWR Scientific, San Francisco, Calif.). Cells were washed twice in RPMI-1640 medium (GIBCO/BRL, Grand Island, N.Y.), resuspended in RPMI (3 ml), and counted on a hemocytometer (Fisher Scientific, Springfield, N.J.). Viability was >98%, as judged by trypan blue exclusion.
Studies of IgE responses induced in vitro were carried out according to the method of Sampson and Buckley in J. Immunol 1981, 127: 829-834. […]
For the in vitro quantitative determination of IgE content in cell culture supernatants, solid phase sandwich enzyme linked immunosorbent assays (ELISAs) were performed using IgE ELISA Test Kits (Abexon Trend, Ramsey, Minn.). […] Specimens were analyzed in duplicate and a standard curve was derived from known concentrations of IgE. Plates were read using an automated microplate reader (Model ELX800) (Bio-Tek Instruments, Inc., Winooski, Vt.), with a 450-nm measurement filter. […]

[3] = tested on: IgE production by stimulated PBMC from asthmatic subjects; assay: IgE production in vitro by anti-CD40 mAb + rhIL-4 stimulated PBMC from asthmatic subjects (IgE ELISA of supernatants); assay type: cell-based, human; settings: 10 day culture; for IgE: anti-CD40 mAb 1 ug/ml + rhIL-4 200 U/ml, ± SE, 5 asthmatic subjects; for inhibition at 0.1 µg/mL / inhibition at 1 µg/mL / inhibition at 10 µg/mL: Homo sapiens, PBMC, 240 h, versus anti-CD40 + rhIL-4 without treatment
Procedure: as §1
Studies of IgE responses induced in vitro were carried out according to the method of Sampson and Buckley in J. Immunol 1981, 127: 829-834. Briefly, PBMC (1.5×10^6 in 1 ml) were cultured +anti-CD40 mAb (1 ug/ml) (BD Pharmingen, San Diego, Calif.), ± recombinant human interleukin-4 (rhIL-4) (200 U/ml) (Genzyme Corp., Boston, Mass.), in the presence or absence of varying concentrations of either minocycline (Lederle Parenterals Inc., Carolina, Puerto Rico) or doxycycline (American Pharmaceutical Partner Inc., Schaumburg, Ill.), 0.1, 1.0, 10 ug/ml) for 0, 3, and 10 days at 37° C. in complete medium in a humidified 4% CO2 atmosphere. Cell viability was >98%, as judged by trypan blue exclusion, on day 10.
Antibiotics were reconstituted in sterile dH2O, according to manufacturer's recommendations. Complete medium contained RPMI-1640 (Fisher Scientific) and was supplemented with N-2-hydroxyethylpiperazine-N′-2-ethanesulfonic acid buffer (HEPES) (25 mM) (Fisher Scientific), penicillin (100 U/ml) (GIBCO/BRL), streptomycin (100 ug/ml) (Eli Lilly and Co., Indianapolis, Ind.), L-glutamine (2 mM) (GIBCO/BRL), and 10% Fetal Calf Serum (FCS) (GIB CO/BRL). The concentration of rhIL-4 in culture was within 1 bog of physiologic relevance (<100 U/ml), according to bioassay data provided by supplier.
For the in vitro quantitative determination of IgE content in cell culture supernatants, solid phase sandwich enzyme linked immunosorbent assays (ELISAs) were performed using IgE ELISA Test Kits (Abexon Trend, Ramsey, Minn.). All ELISAs were performed according to the manufacturer's recommended procedure. Specimens were analyzed in duplicate and a standard curve was derived from known concentrations of IgE. Plates were read using an automated microplate reader (Model ELX800) (Bio-Tek Instruments, Inc., Winooski, Vt.), with a 450-nm measurement filter. Optical densities were converted to IU/ml and/or ng/ml. (1 IU=2.4 ng/IgE protein).

| SMILES | side effects [1] | effect on IgE responses of PBMC of non asthmatic donors [2] | IgE ([3]; 0.1 ug/ml) | IgE ([3]; 1.0 ug/ml) | IgE ([3]; 10 ug/ml) | inhibition at 0.1 µg/mL ([3]; 0.1 ug/ml) | inhibition at 1 µg/mL ([3]; 1.0 ug/ml) | inhibition at 10 µg/mL ([3]; 10 ug/ml) |
| --- | --- | --- | --- | --- | --- | --- | --- | --- |
| CN(C)c1ccc(O)c2c1C[C@H]1C[C@H]3[C@H](N(C)C)C(O)=C(C(N)=O)C(=O)[C@@]3(O)C(O)=C1C2=O [minocycline] | no side effects | no effect | 16 ± 5 ng/mL | 18 ± 7 ng/mL | 5 ± 2 ng/mL | 43% | 36% | 83% |
| C[C@H]1c2cccc(O)c2C(=O)C2=C(O)[C@]3(O)C(=O)C(C(N)=O)=C(O)[C@@H](N(C)C)[C@@H]3[C@@H](O)[C@@H]21 [doxycycline] | – | no effect | 20 ± 9 ng/mL | 14 ± 7 ng/mL | 5 ± 2 ng/mL | 29% | 50% | 83% |
